Measured values reported in PMC11882969 (Nature Communications, 2025).
Values joined by “and” are separate entries in the source; they are usually repeats but may differ in a detail not shown here. Equal values may be shown once. Read-outs that look alike come from different tables or passages of the source.

What was measured:
CB1 (rCB1) [1] = molecular target: T1, CB1 (rCB1) (Rattus norvegicus, UniProt P20272); test: Single-point radioligand displacement screen; assay type: binding; settings: 10 µM, 1 µM or 300 nM by cell colour (not visible)
T1 sequence (P20272 whole entry): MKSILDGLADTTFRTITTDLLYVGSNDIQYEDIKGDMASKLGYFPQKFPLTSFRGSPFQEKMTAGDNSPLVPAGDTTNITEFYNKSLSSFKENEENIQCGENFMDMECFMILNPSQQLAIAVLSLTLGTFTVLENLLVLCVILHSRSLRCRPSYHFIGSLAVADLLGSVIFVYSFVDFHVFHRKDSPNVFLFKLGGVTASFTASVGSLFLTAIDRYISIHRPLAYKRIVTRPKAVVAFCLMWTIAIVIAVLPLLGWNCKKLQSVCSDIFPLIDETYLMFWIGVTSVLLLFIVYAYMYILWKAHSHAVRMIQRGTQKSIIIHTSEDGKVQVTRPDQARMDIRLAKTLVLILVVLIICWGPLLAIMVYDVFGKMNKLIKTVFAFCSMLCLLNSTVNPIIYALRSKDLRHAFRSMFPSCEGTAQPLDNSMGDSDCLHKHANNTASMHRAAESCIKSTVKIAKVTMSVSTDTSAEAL

hCB1 = hCB1 (Homo sapiens, UniProt P21554); test: bioSensAll ebBRET signaling profiling, hCB1; assay type: cell-based; set-up: host or cells: HEK293SL cells, transient PEI transfection; settings: for Gi1 hCB1 response: Gi1 biosensor; for Gi1 hCB1 / GoB hCB1: single replicate values, FigS6a; for EC50: read-out: EC50 [95% CI]; for Emax: normalized to CP-55,940
Chain of hCB1 (P21554 whole entry): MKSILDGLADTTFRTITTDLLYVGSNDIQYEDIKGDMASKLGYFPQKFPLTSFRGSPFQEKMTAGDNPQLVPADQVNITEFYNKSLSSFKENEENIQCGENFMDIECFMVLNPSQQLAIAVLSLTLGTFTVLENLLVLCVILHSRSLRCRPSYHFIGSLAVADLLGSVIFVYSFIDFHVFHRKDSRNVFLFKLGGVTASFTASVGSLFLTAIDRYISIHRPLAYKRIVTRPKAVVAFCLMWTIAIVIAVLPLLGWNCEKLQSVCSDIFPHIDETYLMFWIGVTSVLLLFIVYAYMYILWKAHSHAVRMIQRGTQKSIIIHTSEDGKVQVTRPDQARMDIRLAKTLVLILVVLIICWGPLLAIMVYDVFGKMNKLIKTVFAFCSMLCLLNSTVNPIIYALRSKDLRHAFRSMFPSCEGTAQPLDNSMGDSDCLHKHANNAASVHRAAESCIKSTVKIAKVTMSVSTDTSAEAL

CB1 (rCB1) [2] = molecular target: T1, CB1 (rCB1); test: Radioligand competition binding, [3H]-CP-55,940, rat brain membranes

## Cc1cc(C(=O)NC(c2ccccc2)c2ccco2)nn1-c1cccc(C#N)c1 (stereo not drawn) [‘12565]
CB1 (rCB1) [1]
  % 1H-CP-55,940 displacement (mean) from single point screen: 61.12%
hCB1; Log [Compound] (M) -4.22186
  Gi1 hCB1 response: 51.3091
  Gi1 hCB1: 25.3414
  GoB hCB1: 15.9048
hCB1; Log [Compound] (M) -4.63927
  Gi1 hCB1 response: 50.5034
  Gi1 hCB1: 29.288
  GoB hCB1: 18.0268
hCB1; Log [Compound] (M) -5.05788
  Gi1 hCB1 response: 44.5052
  Gi1 hCB1: 28.8564
  GoB hCB1: 28.8528
hCB1; Log [Compound] (M) -5.47381
  Gi1 hCB1 response: 43.9457
  Gi1 hCB1: 27.1451
  GoB hCB1: 28.2953
hCB1; Log [Compound] (M) -5.89285
  Gi1 hCB1 response: 42.849
  Gi1 hCB1: 25.0947
  GoB hCB1: 22.0012
hCB1; Log [Compound] (M) -6.31878
  Gi1 hCB1 response: 33.2921
  Gi1 hCB1: 21.0402
  GoB hCB1: 26.4251
hCB1; Log [Compound] (M) -6.72585
  Gi1 hCB1 response: 46.4524
  Gi1 hCB1: 17.7873
  GoB hCB1: 22.6665
hCB1; Log [Compound] (M) -7.14267
  Gi1 hCB1 response: 19.6618
  Gi1 hCB1: 12.2681
  GoB hCB1: 15.689
hCB1; Log [Compound] (M) -7.55284
  Gi1 hCB1 response: 13.0593
  Gi1 hCB1: 6.888
  GoB hCB1: 4.557
hCB1; Log [Compound] (M) -8
  Gi1 hCB1 response: 11.2688
  Gi1 hCB1: 2.772
  GoB hCB1: 1.9857
hCB1; Log [Compound] (M) -8.22186
  Gi1 hCB1 response: -3.794
  Gi1 hCB1: 1.492
  GoB hCB1: -4.416
hCB1; Log [Compound] (M) -8.39794
  Gi1 hCB1 response: -8.2031
  Gi1 hCB1: 0.9061
  GoB hCB1: -0.9096
hCB1; Log [Compound] (M) -8.68787
  Gi1 hCB1 response: -4.197
  Gi1 hCB1: 1.4611
  GoB hCB1: -4.902
hCB1; Log [Compound] (M) -9.15521
  Gi1 hCB1 response: -12.5675
  Gi1 hCB1: 0.4436
  GoB hCB1: -2.744
hCB1; Log [Compound] (M) -9.61989
  Gi1 hCB1 response: -10.195
  Gi1 hCB1: -1.406
  GoB hCB1: -3.949
hCB1; Log [Compound] (M) -10.0969
  Gi1 hCB1 response: -5.294
  Gi1 hCB1: 0.8444
  GoB hCB1: -5.531
hCB1; Log [Compound] (M) -10.5529
  Gi1 hCB1 response: 14.9617
  Gi1 hCB1: -0.3889
  GoB hCB1: 0.1334
hCB1; Log [Compound] (M) -11.0177
  Gi1 hCB1 response: -2.317
  Gi1 hCB1: -1.067
  GoB hCB1: 0.2053
hCB1; Log [Compound] (M) -11.4949
  Gi1 hCB1 response: 8.247
  Gi1 hCB1: 0.2894
  GoB hCB1: -1.809
hCB1; Log [Compound] (M) -11.9208
  Gi1 hCB1 response: -0.5263
  Gi1 hCB1: -1.221
  GoB hCB1: -1.251
hCB1; Log [Compound] (M) -12.3979
  Gi1 hCB1 response: -10.9113
  Gi1 hCB1: 0.4282
  GoB hCB1: 0.1334
hCB1; Log [Compound] (M) -12.8861
  Gi1 hCB1 response: -6.234
  Gi1 hCB1: 1.43
  GoB hCB1: -3.211
hCB1; Log [Compound] (M) -13, individual replicate values
  Gi1 hCB1 response: 1.98 and -17.5585
hCB1; Log [Compound] (M) -13
  Gi1 hCB1: 1.507 and -0.6201
  GoB hCB1: -3.409 and -2.942
hCB1; hCB1 Gi1
  pEC50 [95% CI]: 7.0 [6.9 – 7.1]
  EC50: 104 nM
hCB1; hCB1 GoB
  pEC50 [95% CI]: 7.4 [7.1 – 7.6]
  EC50: 44.8 nM
hCB1; hCB1 Gz
  pEC50 [95% CI]: 7.3 [6.9 – 7.7]
  EC50: 54.6 nM
hCB1; read-out: Emax [95% CI], hCB1 Gi1
  Emax: 28%
hCB1; read-out: Emax [95% CI], hCB1 GoB
  Emax: 25%
hCB1; read-out: Emax [95% CI], hCB1 Gz
  Emax: 51%
CB1 (rCB1) [2]; rCB1
  pKi [95% CI]: 6.5 [6.3 – 6.7]
CB1 (rCB1) [2]; read-out: Ki [95% CI], rCB1, [3H]-CP-55,940
  Ki: 301 nM
